Experimental findings from ChEMBL document CHEMBL4130353, “2-Substituted 3,7,8-trimethylnaphtho[1,2-b]furan-4,5-diones as specific L-shaped NQO1-mediated redox modulators for the treatment of non-small cell lung cancer” (Eur J Med Chem, 2017) are described below.

For data set [1], the target named is NAD(P)H dehydrogenase [quinone] 1 (Homo sapiens) (UniProt P15559). The data set can be described thus: Substrate activity at recombinant human NQO1 expressed in Escherichia coli assessed as reduction rate by measuring umol of NADPH utilized per umol of enzyme at 10 uM preincubated for 3 mins followed by NADPH addition measured at 2 secs interval for 5 mins by UV-Vis spectroscopy.
NAD(P)H dehydrogenase [quinone] 1 (Homo sapiens), sequence (P15559 whole entry): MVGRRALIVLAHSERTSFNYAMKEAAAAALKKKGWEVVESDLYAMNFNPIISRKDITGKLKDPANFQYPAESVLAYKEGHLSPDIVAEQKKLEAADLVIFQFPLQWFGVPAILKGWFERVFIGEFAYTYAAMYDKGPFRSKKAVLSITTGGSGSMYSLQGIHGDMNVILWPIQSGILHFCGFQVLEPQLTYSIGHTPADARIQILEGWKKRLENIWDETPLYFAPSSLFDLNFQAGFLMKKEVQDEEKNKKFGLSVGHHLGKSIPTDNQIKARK

Data set [2] can be described thus: Solubility of the compound in diluted HCl buffer at pH 3. The format is physicochemical.
A short description of data set [3]: Effective permeability of the compound at pH 7.4 by PAMPA assay. Format: ADME. To be noted: read-out: Peff. (The PAMPA barrier holds no transporters, so it reflects passive diffusion.)
Data set [4] in a line: Intrinsic solubility of the compound. The format is physicochemical. To be noted: read-out: Intrinsic_solubility.
Data set [5] is described as follows: Lipophilicity, log D of the compound at pH 7.4. The format is physicochemical. The settings on record: buffer.
For data set [6], the target named is T1, NADPH--cytochrome P450 reductase (Homo sapiens, UniProt P16435).
T1 sequence (P16435 whole entry): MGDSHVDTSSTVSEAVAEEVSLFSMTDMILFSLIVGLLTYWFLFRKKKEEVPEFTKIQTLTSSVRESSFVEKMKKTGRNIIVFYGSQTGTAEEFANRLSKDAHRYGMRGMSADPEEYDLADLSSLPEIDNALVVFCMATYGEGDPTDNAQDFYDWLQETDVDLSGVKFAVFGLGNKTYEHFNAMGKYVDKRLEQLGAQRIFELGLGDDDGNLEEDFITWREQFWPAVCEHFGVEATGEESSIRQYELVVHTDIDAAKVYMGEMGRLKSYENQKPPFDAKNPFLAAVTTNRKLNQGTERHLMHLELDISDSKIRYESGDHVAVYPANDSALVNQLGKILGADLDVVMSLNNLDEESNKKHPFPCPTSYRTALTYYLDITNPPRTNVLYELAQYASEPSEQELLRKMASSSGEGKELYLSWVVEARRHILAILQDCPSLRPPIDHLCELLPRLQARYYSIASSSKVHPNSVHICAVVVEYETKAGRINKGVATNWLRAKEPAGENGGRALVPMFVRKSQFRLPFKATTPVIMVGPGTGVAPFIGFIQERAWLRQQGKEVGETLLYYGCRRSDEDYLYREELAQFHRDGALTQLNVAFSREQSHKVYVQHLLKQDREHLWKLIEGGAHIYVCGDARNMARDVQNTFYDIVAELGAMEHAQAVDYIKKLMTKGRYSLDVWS
Briefly: Substrate activity at human CPR expressed in baculovirus expression system assessed as reduction rate by measuring umol of NADPH utilized per umol of enzyme at 10 uM preincubated for 3 mins followed by NADPH addition measured at 2 secs interval for 5 mins by UV-Vis spectroscopy. The format is ADME.

A further data set is filed under the species Homo sapiens. The data set can be described thus: Selectivity ratio for substrate activity at recombinant human NQO1 to substrate activity at human CPR.
A further data set concerns A549/TR. The data set can be described thus: Cytotoxicity against human A549/TR cells assessed as cell growth inhibition preincubated for 24 hrs followed by compound washout measured after 72 hrs by MTT assay. The format is functional, cell-based. A general note: Tetrazolium dyes change colour on reduction, which living cells bring about.
The subject of data set [7] is A549. Briefly: Antitumor activity against human A549 cells xenografted in athymic nude mouse assessed as tumor growth inhibition at 50 mg/kg, iv administered every other day for 3 weeks measured every day during compound dosing relative to control. The format is functional. The settings on record: 504 h, read-out: TGI.
The species named for the next data set is Danio rerio. The data set can be described thus: Hepatotoxicity in 48 hrs post fertilized transgenic liver zebrafish larvae model expressing LFABP:EGFP protein at 1 uM measured after 48 hrs post dose by fluorescence based assay. The settings on record: in vivo. Format: organism-based.
The target of data set [8] is NAD(P)H dehydrogenase [quinone] 1 (Homo sapiens) (UniProt P15559). The data set can be described thus: Substrate activity at NQO1 in human A549 cells assessed as induction of enzyme-catalyzed lipid peroxidation by measuring MDA equivalents per protein at 10 uM after 24 hrs by TBARS assay. The format is cell-based.
Data set [9] concerns A549. The data set can be described thus: Antitumor activity against human A549 cells xenografted in athymic nude mouse assessed as tumor growth inhibition at 30 mg/kg, iv administered every other day for 3 weeks measured every day during compound dosing relative to control. To be noted: 504 h, read-out: TGI. The format is functional. In general terms: In xenograft studies the graft and the host belong to different species.

A further data set has as its system L02. The data set can be described thus: Induction of intracellular ROS levels in human L02 cells at 10 uM after 1 to 3 hrs by DCFH-DA-based flow cytometry. Format: cell-based. To be noted: l02, 10 µM.
Data set [10] concerns the target NAD(P)H dehydrogenase [quinone] 1 (Homo sapiens) (UniProt P15559). The data set can be described thus: Substrate activity at NQO1 in human A549 cells assessed as induction of enzyme-catalyzed ROS production at 10 uM after 1 to 3 hrs by DCFH-DA-based flow cytometry. Format: cell-based.

Values after ≈ are worked out from the molar mass of the structure shown. Active and inactive are the calls of the source. The calls are words filed in the database; no cut-off is given here. Some results are limits rather than exact numbers.

As for `COc1ccc(NCc2oc3c(c2C)C(=O)C(=O)c2cc(C)c(C)cc2-3)cc1`, the Activity in [1] is 1120 µmol/min.

Broadly, the logD is lipophilicity at a set pH, counting ionised and neutral species. A higher logD goes with a more lipophilic compound. On to `Cc1cc2c(cc1C)-c1occ(C)c1C(=O)C2=O`, for which the values for the solubility in data set [2] and in data set [4] were under 100 µg/mL and 28.6 µg/mL (≈ 119 µM), respectively. For the same compound, the Papp in [3] is 43.1 ×10⁻⁶ cm/s. This compound also displayed a logD in [5] of 3.65. In data set [6], the Activity was 142 µmol NADPH/min/µmol enzyme.

In the case of `Cc1cc2c(cc1C)-c1oc(C(=O)N3CCN(c4ccc(F)cc4)CC3)c(C)c1C(=O)C2=O`, the Activity in data set [1] worked out at 1190 µmol/min.

In the case of `COc1ccccc1NCc1oc2c(c1C)C(=O)C(=O)c1cc(C)c(C)cc1-2`, the Activity in data set [1] was 1040 µmol/min.

As for `Cc1cc2c(cc1C)-c1oc(CNc3ccc(F)cc3)c(C)c1C(=O)C2=O`, the values for the solubility in [2] and in [4] were 100 to 500 µg/mL (≈ 275 to 1380 µM) and 48.5 µg/mL (≈ 133 µM), respectively. For the same compound, the Papp in data set [3] amounted to 42 ×10⁻⁶ cm/s. The Activity in data set [1] was 1330 µmol/min; in data set [6], 105 µmol NADPH/min/µmol enzyme. Besides, the Selectivity ratio in the data set listed under Homo sapiens was 12.7. The compound further returned a logD in data set [5] of 4.03.

Regarding `Cc1cc2c(cc1C)-c1oc(CNc3ccc(Br)cc3)c(C)c1C(=O)C2=O`, in [1], the Activity was determined as 1150 µmol/min.

For `Cc1cc2c(cc1C)-c1oc(CNc3cccc(F)c3)c(C)c1C(=O)C2=O`, the solubility is 100 to 500 µg/mL (≈ 275 to 1380 µM) in data set [2] and 51.2 µg/mL (≈ 141 µM) in data set [4]. The Papp in [3] came to 66.2 ×10⁻⁶ cm/s. Also, the Activity in data set [1] is 1340 µmol/min; in [6] it was 112 µmol NADPH/min/µmol enzyme. For the same compound, the Selectivity ratio in the data set listed under Homo sapiens worked out at 12. In addition, the logD in [5] turned out to be 4.21.

Turning to `Cc1cc2c(cc1C)-c1oc(CNc3ccc(F)cc3F)c(C)c1C(=O)C2=O`, the Activity in data set [1] was 1180 µmol/min.

In the case of `Cc1cc2c(cc1C)-c1oc(C(=O)NCc3ccc(F)cc3)c(C)c1C(=O)C2=O`, the Activity in data set [1] worked out at 1290 µmol/min.

Take `Cc1cc2c(cc1C)-c1oc(CNCc3ccc(F)cc3)c(C)c1C(=O)C2=O`: the Activity in data set [1] amounted to 1200 µmol/min.

`Cc1cc2c(cc1C)-c1oc(CN3CCN(c4ccccc4)CC3)c(C)c1C(=O)C2=O`: the Activity in [1] worked out at 1050 µmol/min.

As for `COc1cccc(NCc2oc3c(c2C)C(=O)C(=O)c2cc(C)c(C)cc2-3)c1`, the Activity in data set [1] is 955 µmol/min.

For the compound `Cc1cc2c(cc1C)-c1oc(CN3CCN(c4ccc(F)cc4)CC3)c(C)c1C(=O)C2=O`, the solubility in data set [2] is 500 to 1000 µg/mL (≈ 1160 to 2310 µM); in data set [4], 151 µg/mL (≈ 349 µM). Moreover, in [3], the Papp came out at 28.3 ×10⁻⁶ cm/s. Besides, the values for the Activity in data set [1] and in [6] were 1460 µmol/min and 159 µmol NADPH/min/µmol enzyme, respectively. Besides, the Selectivity ratio in the data set filed under Homo sapiens was determined as 9.19. The compound also registered a logD in [5] of 2.89.

A word on the IC50: it is the midpoint of a concentration-inhibition curve. As to `CC(=O)O[C@H]1C(=O)[C@@]2(C)[C@H]([C@H](OC(=O)c3ccccc3)[C@]3(O)C[C@H](OC(=O)[C@H](O)[C@@H](NC(=O)c4ccccc4)c4ccccc4)C(C)=C1C3(C)C)[C@]1(OC(C)=O)CO[C@@H]1C[C@@H]2O` [PACLITAXEL], in the data set on A549/TR, the IC50 came out at 28 µM.

On to `Cc1cc2c(cc1C)-c1oc(CN3CCN(Cc4ccccc4)CC3)c(C)c1C(=O)C2=O`, for which the Activity in [1] came out at 1190 µmol/min.

In the case of `Cc1cc2c(cc1C)-c1oc(C(=O)Nc3ccc(F)cc3)c(C)c1C(=O)C2=O`, the Activity in [1] amounted to 1260 µmol/min.

Turning to `CC1(C)CCC2=C(O1)c1ccccc1C(=O)C2=O` [LAPACHONE], the values for the solubility in [2] and in data set [4] were under 100 µg/mL and 38 µg/mL (≈ 157 µM), respectively. Also, in the data set with A549 [7], the inhibition in vivo at 50 mg/kg was 84.9%. The figures for the Activity entry (in the data set listed under Danio rerio; in [8]; with L02) were “Toxic”, 15.9 nmol/mg and “Toxic”, respectively. In addition, the Papp in data set [3] came out at 46.4 ×10⁻⁶ cm/s. In addition, the inhibition in vivo at 30 mg/kg in the data set on A549 [9] is 78.5%. Moreover, the result in [10] was Active.

As for `Cc1cc2c(cc1C)-c1oc(CNc3ccc(F)c(Cl)c3)c(C)c1C(=O)C2=O`, the Activity in data set [1] stood at 940 µmol/min.

For the compound `Cc1cc2c(cc1C)-c1oc(CNc3ccc(Cl)c(Cl)c3)c(C)c1C(=O)C2=O`, in data set [1], the Activity was determined as 847 µmol/min.

Turning to `Cc1cc2c(cc1C)-c1oc(C(=O)N3CCN(Cc4ccccc4)CC3)c(C)c1C(=O)C2=O`, the figures for the solubility in data set [2] and in [4] were 100 to 500 µg/mL (≈ 226 to 1130 µM) and 41.1 µg/mL (≈ 92.9 µM), respectively. Besides, the Papp in [3] was determined as 11.9 ×10⁻⁶ cm/s. The figures for the Activity in data set [1] and in data set [6] were 1360 µmol/min and 90 µmol NADPH/min/µmol enzyme, respectively. Moreover, in the data set listed under Homo sapiens, the Selectivity ratio came out at 15.1. In data set [5], this compound showed a logD of 4.82.

With `Cc1cc2c(cc1C)-c1oc(CNc3ccc(F)cc3C)c(C)c1C(=O)C2=O`, the solubility was under 100 µg/mL in data set [2] and 33.1 µg/mL (≈ 87.7 µM) in data set [4]. In addition, the Activity was 1320 µmol/min in [1] and 127 µmol NADPH/min/µmol enzyme in data set [6]. Besides, in the data set listed under Homo sapiens, the Selectivity ratio was found to be 10.3. This compound returned a logD in [5] of 3.31.

On to `Cc1cc2c(cc1C)-c1oc(CNc3ccc(C#N)cc3)c(C)c1C(=O)C2=O`, for which the Activity in [1] worked out at 898 µmol/min.

In the case of `Cc1cc2c(cc1C)-c1oc(CNc3ccc(Cl)cc3Cl)c(C)c1C(=O)C2=O`, the Activity in data set [1] stood at 1060 µmol/min.
